In patent US8735412B2, “Sulfoximine-substituted anilinopyrimidine derivatives as CDK inhibitors, the production thereof, and use as medicine” (Bayer Intellectual Property GmbH, priority 2008, dated 2014):

Key:
CDK1/CycB = target: T1, CDK1/CycB (Homo sapiens, UniProt P06493); experiment: CDK1/CycB kinase assay (Assay 1); type: biochemical; conditions: 0.5 μM ATP, histon IIIS substrate; read-out: CDK1/CycB (Assay 1) Concentration for 50% inhibition of enzyme activity, IC50
T1 construct: purchased ProQinase GmbH, Freiburg; host or cells: baculovirus-infected insect cells (Sf9)
T1 sequence (P06493 whole entry): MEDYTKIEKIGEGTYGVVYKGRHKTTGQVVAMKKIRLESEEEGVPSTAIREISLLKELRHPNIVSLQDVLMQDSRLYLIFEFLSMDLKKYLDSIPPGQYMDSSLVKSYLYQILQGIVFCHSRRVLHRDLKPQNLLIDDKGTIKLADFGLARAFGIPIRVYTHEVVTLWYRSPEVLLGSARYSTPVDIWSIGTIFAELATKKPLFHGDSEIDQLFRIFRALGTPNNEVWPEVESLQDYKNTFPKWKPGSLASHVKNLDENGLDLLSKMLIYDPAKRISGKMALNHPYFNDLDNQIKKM
T1 sequence (P14635 whole entry partner): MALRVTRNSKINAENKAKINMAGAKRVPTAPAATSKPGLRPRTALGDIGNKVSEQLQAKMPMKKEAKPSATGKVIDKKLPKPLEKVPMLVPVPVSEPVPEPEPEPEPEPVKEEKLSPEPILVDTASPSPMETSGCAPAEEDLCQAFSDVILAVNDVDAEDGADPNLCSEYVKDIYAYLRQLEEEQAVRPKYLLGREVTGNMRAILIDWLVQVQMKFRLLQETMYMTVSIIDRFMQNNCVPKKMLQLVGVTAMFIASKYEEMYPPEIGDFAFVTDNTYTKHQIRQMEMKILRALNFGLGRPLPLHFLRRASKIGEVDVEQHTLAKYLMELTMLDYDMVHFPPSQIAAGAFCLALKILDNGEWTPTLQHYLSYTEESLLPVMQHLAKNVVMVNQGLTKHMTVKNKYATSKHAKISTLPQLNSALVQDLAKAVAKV
Description: 10.1 Assay 1: CDK1/CycB Kinase Assay
Recombinant CDK1 and CycB-GST fusion proteins, purified from baculovirus-infected insect cells (Sf9), were purchased from ProQinase GmbH, Freiburg. The histon IIIS used as kinase substrate is commercially available from the company Sigma.
CDK1/CycB (200 ng/measuring point) was incubated for 10 min at 22° C. in the presence of various concentrations of test substances (0 μM, and within the range 0.01-100 μM) in assay buffer [50 mM Tris/HCl pH8.0, 10 mM MgCl2, 0.1 mM Na ortho-vanadate, 1.0 mM dithiothreitol, 0.5 μM adenosine triphosphate (ATP), 10 μg/measuring point histon IIIS, 0.2 μCi/measuring point ^33P-gamma ATP, 0.05% NP40, 1.25% dimethylsulfoxide]. The reaction was stopped by adding EDTA solution (250 mM, pH8.0, 15 μl/measuring point).
(§1) From each reaction mixture, 15 μl was applied to P30 filter strips (from Wallac), and unincorporated ^33P-ATP was removed by washing the filter strips three times, for 10 min each time, in 0.5% phosphoric acid. After drying the filter strips for 1 hour at 70° C., the filter strips were covered with scintillator strips (MeltiLex™ A, from Wallac) and stoved for 1 hour at 90° C. The amount of incorporated ^33P (substrate phosphorylation) was determined by scintillation measurement in a gamma-radiation measuring instrument (Wallac). The measured data were standardized to 0% inhibition (enzyme reaction without inhibitor) and 100% inhibition (all assay components except enzyme). The IC50 values were determined by means of a 4-parameter fit using the company's own software.

[1] = target: T2, VEGF receptor tyrosine kinase-2 (Homo sapiens, UniProt P35968); experiment: VEGF receptor-2 kinase assay (Assay 3); type: biochemical; conditions: 8 μM ATP, poly-(Glu4Tyr) substrate; read-out: VEGF-R2 (Assay 3) Concentration for 50% inhibition of enzyme activity, IC50
T2 construct: GST; made in house; host or cells: baculovirus-infected insect cells (Sf9)
T2 sequence (P35968 20-1356): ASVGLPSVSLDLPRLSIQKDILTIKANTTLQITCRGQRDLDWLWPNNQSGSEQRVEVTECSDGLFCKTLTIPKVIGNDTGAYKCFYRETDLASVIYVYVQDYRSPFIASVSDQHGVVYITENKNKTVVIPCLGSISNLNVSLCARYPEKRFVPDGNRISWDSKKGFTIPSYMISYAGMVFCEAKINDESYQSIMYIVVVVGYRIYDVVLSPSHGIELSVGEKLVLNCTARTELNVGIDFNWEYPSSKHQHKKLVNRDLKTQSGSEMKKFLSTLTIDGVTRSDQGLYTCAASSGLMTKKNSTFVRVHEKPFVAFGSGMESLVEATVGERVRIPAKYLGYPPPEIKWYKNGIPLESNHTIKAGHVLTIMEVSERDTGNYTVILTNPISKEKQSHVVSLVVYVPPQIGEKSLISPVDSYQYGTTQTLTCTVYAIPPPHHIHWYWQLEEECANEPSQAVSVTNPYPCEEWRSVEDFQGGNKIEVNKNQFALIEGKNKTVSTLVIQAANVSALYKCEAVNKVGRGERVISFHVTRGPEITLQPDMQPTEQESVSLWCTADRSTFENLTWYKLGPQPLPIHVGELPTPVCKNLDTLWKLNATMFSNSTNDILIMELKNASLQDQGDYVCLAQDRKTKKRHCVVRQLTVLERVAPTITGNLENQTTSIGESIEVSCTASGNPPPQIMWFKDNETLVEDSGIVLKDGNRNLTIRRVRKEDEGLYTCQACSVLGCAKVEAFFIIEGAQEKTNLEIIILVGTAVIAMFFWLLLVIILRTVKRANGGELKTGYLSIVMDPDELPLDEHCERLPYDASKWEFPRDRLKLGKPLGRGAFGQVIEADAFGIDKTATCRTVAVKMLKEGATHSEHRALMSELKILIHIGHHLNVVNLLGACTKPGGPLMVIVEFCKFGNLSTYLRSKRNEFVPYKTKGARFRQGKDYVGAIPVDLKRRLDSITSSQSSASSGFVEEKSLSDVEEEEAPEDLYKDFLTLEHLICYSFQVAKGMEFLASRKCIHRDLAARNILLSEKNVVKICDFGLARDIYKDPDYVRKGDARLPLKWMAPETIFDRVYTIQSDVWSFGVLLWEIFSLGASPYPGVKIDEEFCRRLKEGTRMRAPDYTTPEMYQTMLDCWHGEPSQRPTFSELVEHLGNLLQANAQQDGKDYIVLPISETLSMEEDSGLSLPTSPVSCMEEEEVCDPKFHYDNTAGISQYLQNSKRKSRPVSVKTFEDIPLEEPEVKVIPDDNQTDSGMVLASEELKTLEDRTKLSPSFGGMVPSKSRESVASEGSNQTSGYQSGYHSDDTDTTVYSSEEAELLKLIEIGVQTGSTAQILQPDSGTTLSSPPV
Description: 10.3 Assay 3: VEGF Receptor-2 Kinase Assay
Recombinant VEGF receptor tyrosine kinase-2 was purified as GST fusion protein from baculovirus-infected insect cells (Sf9). Poly-(Glu4Tyr), used as kinase substrate, was purchased from the company Sigma.
VEGF receptor tyrosine kinase (90 ng/measuring point) was incubated for 10 min at 22° C. in the presence of various concentrations of test substances (0 μM, and within the range 0.001-30 μM) in 30 μl assay buffer [40 mM Tris/HCl pH5.5, 10 mM MgCl2, 1 mM MnCl2, 3 μM Na ortho-vanadate, 1.0 mM dithiothreitol, 8 μM adenosine triphosphate (ATP), 0.96 μg/measuring point poly-(Glu4Tyr), 0.2 μCi/measuring point ^33P-gamma ATP, 1.4% dimethylsulfoxide]. The reaction was stopped by adding EDTA solution (250 mM, pH8.0, 15 μl/measuring point).
as §1

[2] = test system: HeLa-MaTu cervical carcinoma cells; experiment: Proliferation assay (Assay 4), crystal violet staining; type: cell-based; conditions: Homo sapiens, 96 h, 4 days incubation; read-out: HeLa-MaTu (Assay 4) Concentration for 50% inhibition of cellular proliferation, IC50
Description: 10.4 Assay 4: Proliferation Assay
Cultivated human HeLa-MaTu cervical carcinoma cells (obtained from EPO-GmbH, Berlin) were plated at a density of 3000 cells/measuring point in a 96-well multititer is plate in 200 μl of growth medium (DMEM/HAMS F12, 2 mM L-glutamine, 10% fetal calf serum). After 24 hours the cells of one plate (zero-point plate) were stained with crystal violet (see below), whereas the medium of the other plates was replaced with fresh culture medium (200 μl), to which the test substances had been added at various concentrations (0 μM, and in the range 0.01-30 μM; the final concentration of the solvent dimethylsulfoxide was 0.5%). The cells were incubated for 4 days in the presence of the test substances. Cellular proliferation was determined by staining the cells with crystal violet: the cells were fixed by adding 20 μl/measuring point of an 11% glutaraldehyde solution for 15 min at room temperature. After washing the fixed cells with water three times, the plates were dried at room temperature. The cells were stained by adding 100 μl/measuring point of a 0.1% crystal violet solution (pH adjusted to pH3 by adding acetic acid). After washing the stained cells with water three times, the plates were dried at room temperature. The dye was dissolved by adding 100 μl/measuring point of a 10% acetic acid solution. The extinction was determined photometrically at a wavelength of 595 nm. The percentage change in cell growth was calculated by standardization of the measured values to the extinction values of the zero-point plate (=0%) and the extinction of the untreated (0 μM) cells (=100%). The measured data were standardized to 0% inhibition (cell proliferation without inhibitor) and 100% inhibition (zero-point plate). The IC50 values were determined by means of a 4-parameter fit using the company's own software.

[3] = test system: HeLa-MaTu human cervical carcinoma xenograft; experiment: HeLa-MaTu cervical tumor xenograft model on NMRI nude mice; type: in vivo; conditions: oral, 2x daily on day 5, 6, 12, 13, 19, 20
Description: HeLa-MaTu (EPO-GmbH, Berlin) human cervical carcinoma cells, which were grown in cell culture, were implanted subcutaneously in the flank of female NMRI nude mice. […] The study was terminated as soon as the tumors in one of the groups reached a size of approx. 150 mm^2.
(§2) The growth-inhibiting effect of the compounds was tested in the HeLa-MaTu cervical tumor model as xenograft on NMRI nude mice. […] Treatment of the established tumors was begun on day 4 after inoculation of the tumors.
as §2, §2
(§3) The study was designed for determining the initial response of a human cervical carcinoma xenograft model to treatments with the 5-Br comparative substance V12. The growth-inhibiting effect of the compounds was tested in the HeLa-MaTu cervical tumor model as xenograft on NMRI nude mice. V12 was dissolved completely in the solubilizer 40% polyethylene glycol 400 (PEG 400)/60% water to a final concentration of 0.7 mg/ml (group 2), 0.85 mg/ml (group 3), or 1.0 mg/ml (group 4). Treatment of the established tumors was begun on day 4 after inoculation of the tumors.
HeLa-MaTu (EPO-GmbH, Berlin) human cervical carcinoma cells, which were grown in cell culture, were implanted subcutaneously in the flank of female NMRI nude mice. […] The study was terminated as soon as the tumors in one of the groups reached a size of approx. 160 mm^2.
(§4) The growth-inhibiting effect of the compounds was tested in the HeLa-MaTu cervical tumor model as xenograft on NMRI nude mice. […] Treatment of the established tumors was begun on day 5 after inoculation of the tumors.
as §4, §4
The following test groups were used: • Group 1: Control, treatment with solubilizer (40% PEG 400/60% water) • Group 2: Compound according to WO 2005/037800 prepared according to preparation V14 disclosed above • (6 mg/kg, oral, 2x daily on day 5, 6, 12, 13, 19, 20) • Group 3: Compound according to WO 2005/037800 prepared according to preparation V14 disclosed above • (8 mg/kg, oral, 2× daily on day 5, 6, 12, 13, 19, 20) • Group 4: Compound according to WO 2005/037800 prepared according to preparation V14 disclosed above • (10 mg/kg, oral, 2× daily on day 5, 6, 12, 13, 19, 20)
as §3, with “substance V14.” for “substance V12.”, “mice. V14” for “mice. V12”, “of 0.6” for “of 0.7”, “2), 0.8” for “2), 0.85”, “day 5” for “day 4”

C[C@@H](O)[C@@H](C)Oc1nc(Nc2ccc(S(C)(=N)=O)cc2)ncc1Br (stereo partly shown) [Example V13]
IC50 (CDK1/CycB): 3 nM
IC50 [1]: 140 nM
IC50 [2]: 9 nM
reduction of tumor weight at the end of the study to % of the control group ([3]; 10 mg/kg (group 4), day 20): 23%
tolerability of the cyclic treatment regimen ([3]; 10 mg/kg): well-tolerated
effect on tumor growth (in words) ([3]; 6, 8, 10 mg/kg): dose-dependent inhibition of tumor growth
response vs control in vivo at 10 mg/kg ([3]; Mus musculus, 480 h, 10 mg/kg (group 4), day 20, read-out: treatment/control ratio T/C (tumor weight)): 23%
